Active and inactive are the calls of the source. No cut-off for these calls is given here.
Tests used:
[1] = test system: Mus musculus; experiment: Neurotoxicity in Mus musculus albino (mouse) assessed as minimal motor impairment at 300 mg/kg, ip measured at 0.5 hr; type: toxicity, organism-based; design: dose 300 mg/kg, route intraperitoneal; settings: in vivo
[2] = test system: Mus musculus; experiment: Anticonvulsant activity in Mus musculus albino (mouse) assessed as protection against maximal electroshock-induced seizures at 300 mg/kg, ip measured at 4 hr; type: functional, organism-based; design: dose 300 mg/kg
[3] = test system: Mus musculus; experiment: Behavioral activity in Mus musculus albino (mouse) assessed as inhibition of locomotion at 100 mg/kg, ip after 1 hr by actophotometric analysis relative to control; type: functional; settings: route intraperitoneal
[4] = test system: Rattus norvegicus; experiment: Antidepressant activity in Rattus norvegicus Wistar (rat) assessed as immobility time at 100 mg/kg, ip after 60 min by forced swim pool test relative to control; settings: route intraperitoneal
[5] = test system: Mus musculus; experiment: Anticonvulsant activity in Mus musculus albino (mouse) assessed as protection against subcutaneous pentylenetetrazol-induced seizures at 300 mg/kg, ip measured at 4 hr; type: functional, organism-based; design: dose 300 mg/kg
[6] = test system: Mus musculus; experiment: Anticonvulsant activity in Mus musculus albino (mouse) assessed as protection against subcutaneous pentylenetetrazol-induced seizures at 300 mg/kg, ip measured at 0.5 hr; type: functional, organism-based; design: dose 300 mg/kg
[7] = species: Mus musculus; experiment: Sedative-hypnotic activity in Mus musculus albino (mouse) assessed as increase in phenobarbitone-induced sleeping time; type: functional, organism-based
[8] = test system: Mus musculus; experiment: Anticonvulsant activity in Mus musculus albino (mouse) assessed as protection against maximal electroshock-induced seizures at 300 mg/kg, ip measured at 0.5 hr; type: functional, organism-based; design: dose 300 mg/kg
[9] = test system: Mus musculus; experiment: Neurotoxicity in Mus musculus albino (mouse) assessed as minimal motor impairment at 300 mg/kg, ip measured at 4 hr; type: toxicity, organism-based; design: dose 300 mg/kg, route intraperitoneal; settings: in vivo
[10] = test system: Mus musculus; experiment: Anticonvulsant activity in ip dosed Mus musculus albino (mouse) assessed as protection against maximal electroshock-induced seizures measured at 0.5 hr; type: functional; settings: read-out: MED
[11] = test system: Mus musculus; experiment: Anticonvulsant activity in ip dosed Mus musculus albino (mouse) assessed as protection against maximal electroshock-induced seizures measured at 4 hr; type: functional; settings: read-out: MED
[12] = test system: Rattus norvegicus; experiment: Antidepressant activity in Rattus norvegicus Wistar (rat) assessed as immobility time at 25 mg/kg, ip after 60 min by forced swim pool test relative to control; settings: route intraperitoneal
[13] = test system: Mus musculus; experiment: Neurotoxicity in ip dosed Mus musculus albino (mouse) assessed as minimal motor impairment measured at 0.5 hr; type: toxicity, organism-based; settings: in vivo
[14] = test system: Mus musculus; experiment: Neurotoxicity in ip dosed Mus musculus albino (mouse) assessed as minimal motor impairment measured at 4 hr; type: toxicity, organism-based; settings: in vivo
[15] = test system: Mus musculus; experiment: Anticonvulsant activity in ip dosed Mus musculus albino (mouse) assessed as protection against subcutaneous pentylenetetrazol-induced seizures measured at 4 hr; type: functional; settings: read-out: MED
[16] = test system: Mus musculus; experiment: Anticonvulsant activity in ip dosed Mus musculus albino (mouse) assessed as protection against subcutaneous pentylenetetrazol-induced seizures measured at 0.5 hr; type: functional; settings: read-out: MED
[17] = test system: Mus musculus; experiment: Behavioral activity in Mus musculus albino (mouse) assessed as inhibition of locomotion at 25 mg/kg, ip after 1 hr by actophotometric analysis relative to control; type: functional; settings: route intraperitoneal

Q: With `Cc1ccc(-c2nnc(-n3c(/C=C/c4ccc(Cl)cc4)nc4ccccc4c3=O)o2)cc1` as the molecule, how does the Activity [1] read?
A: Non-toxic

Q: And the Activity [2]?
A: inactive

Q: What about the inhibition in vivo at 100 mg/kg [3] of the same molecule?
A: 56%

Q: And the Time [4]?
A: 150.76 s

Q: And the Activity [5]?
A: inactive

Q: And the Activity [6]?
A: inactive

Q: What about the Activity [7] of the same molecule?
A: inactive

Q: And the Activity [8]?
A: inactive

Q: And the Activity [9]?
A: Non-toxic

Q: For `O=c1c2ccccc2nc(/C=C/c2ccccc2)n1-c1nnc(-c2ccccc2)o1`, which Activity [1] is on record?
A: Non-toxic

Q: What about the Activity [2] of the same molecule?
A: inactive

Q: What about the inhibition in vivo at 100 mg/kg [3] of the same molecule?
A: 48%

Q: What about the Time [4] of the same molecule?
A: 113.14 s

Q: And the Activity [5]?
A: inactive

Q: And the Activity [6]?
A: inactive

Q: What about the Activity [7] of the same molecule?
A: inactive

Q: And the Activity [8]?
A: inactive

Q: And the Activity [9]?
A: Non-toxic

Q: With `Cc1ccc(/C=C/c2nc3ccccc3c(=O)n2-c2nnc(-c3ccccc3)o2)cc1` as the molecule, how does the Activity [1] read?
A: Non-toxic

Q: And the Activity [2]?
A: inactive

Q: And the inhibition in vivo at 100 mg/kg [3]?
A: 47%

Q: And the Time [4]?
A: 160.05 s

Q: What about the Activity [5] of the same molecule?
A: inactive

Q: What about the Activity [6] of the same molecule?
A: inactive

Q: And the Activity [7]?
A: inactive

Q: What about the Activity [8] of the same molecule?
A: inactive

Q: And the Activity [9]?
A: Non-toxic

Q: Which results are given for `NC(=O)N1c2ccccc2C=Cc2ccccc21` [CARBAMAZEPINE]?
A: minimal effective dose [10]: 30 mg/kg; minimal effective dose [11]: 100 mg/kg; Time [12]: 240.3 s; MTC [13]: 100 mg/kg; MTC [14]: 300 mg/kg; minimal effective dose [15]: 300 mg/kg; minimal effective dose [16]: 100 mg/kg

Q: `O=c1c2ccccc2nc(/C=C/c2ccc(Cl)cc2)n1-c1nnc(-c2ccccc2)o1` was tested. Which Activity [1] did it give?
A: Non-toxic

Q: What about the Activity [2] of the same molecule?
A: inactive

Q: What about the inhibition in vivo at 100 mg/kg [3] of the same molecule?
A: 51%

Q: And the Time [4]?
A: 151.11 s

Q: What about the Activity [5] of the same molecule?
A: inactive

Q: What about the Activity [6] of the same molecule?
A: inactive

Q: And the Activity [7]?
A: inactive

Q: And the Activity [8]?
A: inactive

Q: What about the Activity [9] of the same molecule?
A: Non-toxic

Q: What does the source list for `Cc1ccc(/C=C/c2nc3ccccc3c(=O)n2-c2nnc(-c3ccc(N(C)C)cc3)o2)cc1`?
A: Activity [2]: inactive; inhibition in vivo at 100 mg/kg [3]: 37%; Time [4]: 125.42 s; Activity [5]: inactive; Activity [6]: inactive; MTC [13]: 100 mg/kg; Activity [7]: inactive; Activity [8]: inactive; Activity [9]: Non-toxic

Q: With `Cc1ccc(/C=C/c2nc3ccccc3c(=O)n2-c2nnc(-c3ccc(Cl)cc3)o2)cc1` as the molecule, how does the Activity [1] read?
A: Non-toxic

Q: And the minimal effective dose [10]?
A: 300 mg/kg

Q: And the Activity [2]?
A: inactive

Q: What about the inhibition in vivo at 100 mg/kg [3] of the same molecule?
A: 45%

Q: And the Time [4]?
A: 135.18 s

Q: What about the Activity [5] of the same molecule?
A: inactive

Q: What about the Activity [6] of the same molecule?
A: inactive

Q: What about the Activity [7] of the same molecule?
A: inactive

Q: And the Activity [9]?
A: Non-toxic

Q: For `O=C1NC(=O)C(c2ccccc2)(c2ccccc2)N1` [PHENYTOIN], which minimal effective dose [10] is on record?
A: 30 mg/kg

Q: And the minimal effective dose [11]?
A: 30 mg/kg

Q: What about the Activity [5] of the same molecule?
A: inactive

Q: What about the Activity [6] of the same molecule?
A: inactive

Q: What about the MTC [13] of the same molecule?
A: 100 mg/kg

Q: What about the MTC [14] of the same molecule?
A: 100 mg/kg

Q: And the inhibition in vivo at 25 mg/kg [17]?
A: 70%

Q: Which Activity [1] does the source give for `Cc1ccc(-c2nnc(-n3c(/C=C/c4ccccc4)nc4ccccc4c3=O)o2)cc1` here?
A: Non-toxic

Q: What about the Activity [2] of the same molecule?
A: inactive

Q: And the inhibition in vivo at 100 mg/kg [3]?
A: 48%

Q: What about the Time [4] of the same molecule?
A: 152.39 s

Q: And the Activity [5]?
A: inactive

Q: And the Activity [6]?
A: inactive

Q: What about the Activity [7] of the same molecule?
A: inactive

Q: And the Activity [8]?
A: inactive

Q: And the Activity [9]?
A: Non-toxic

Q: Which Activity [1] does the source give for `COc1ccc(-c2nnc(-n3c(/C=C/c4ccc(C)cc4)nc4ccccc4c3=O)o2)cc1` here?
A: Non-toxic

Q: What about the Activity [2] of the same molecule?
A: inactive

Q: What about the inhibition in vivo at 100 mg/kg [3] of the same molecule?
A: 42%

Q: And the Time [4]?
A: 182.82 s

Q: What about the Activity [5] of the same molecule?
A: inactive

Q: And the Activity [6]?
A: inactive

Q: What about the Activity [7] of the same molecule?
A: inactive

Q: And the Activity [8]?
A: inactive

Q: What about the Activity [9] of the same molecule?
A: Non-toxic

Q: Which minimal effective dose [10] does the source give for `CN(C)c1ccc(-c2nnc(-n3c(/C=C/c4ccc(Cl)cc4)nc4ccccc4c3=O)o2)cc1` here?
A: 100 mg/kg

Q: And the minimal effective dose [11]?
A: 100 mg/kg

Q: What about the inhibition in vivo at 100 mg/kg [3] of the same molecule?
A: 49%

Q: What about the Time [4] of the same molecule?
A: 121.21 s

Q: What about the MTC [13] of the same molecule?
A: 100 mg/kg

Q: What about the Activity [7] of the same molecule?
A: inactive

Q: And the MTC [14]?
A: 100 mg/kg

Q: And the minimal effective dose [15]?
A: 300 mg/kg

Q: What about the minimal effective dose [16] of the same molecule?
A: 300 mg/kg

Q: How did the Activity [2] turn out when `COc1ccc(-c2nnc(-n3c(/C=C/c4ccccc4)nc4ccccc4c3=O)o2)cc1` was run?
A: inactive

Q: And the inhibition in vivo at 100 mg/kg [3]?
A: 41%

Q: What about the Time [4] of the same molecule?
A: 163.75 s

Q: And the Activity [5]?
A: inactive

Q: What about the Activity [6] of the same molecule?
A: inactive

Q: And the MTC [13]?
A: 300 mg/kg

Q: What about the Activity [7] of the same molecule?
A: inactive

Q: And the Activity [8]?
A: inactive

Q: And the Activity [9]?
A: Non-toxic

Q: Which results are given for `O=c1c2ccccc2nc(/C=C/c2ccccc2)n1-c1nnc(-c2ccc(Cl)cc2)o1`?
A: Activity [1]: Non-toxic; Activity [2]: inactive; inhibition in vivo at 100 mg/kg [3]: 38%; Time [4]: 217.93 s; Activity [5]: inactive; Activity [6]: inactive; Activity [7]: inactive; Activity [8]: inactive; Activity [9]: Non-toxic

Q: Which Activity [1] does the source give for `Cc1ccc(/C=C/c2nc3ccccc3c(=O)n2-c2nnc(-c3ccc(C)cc3)o2)cc1` here?
A: Non-toxic

Q: What about the Activity [2] of the same molecule?
A: inactive

Q: What about the inhibition in vivo at 100 mg/kg [3] of the same molecule?
A: 40%

Q: And the Time [4]?
A: 163.21 s

Q: And the Activity [5]?
A: inactive

Q: What about the Activity [6] of the same molecule?
A: inactive

Q: And the Activity [7]?
A: inactive

Q: What about the Activity [8] of the same molecule?
A: inactive

Q: What about the Activity [9] of the same molecule?
A: Non-toxic

Q: With `COc1ccc(-c2nnc(-n3c(/C=C/c4ccc(Cl)cc4)nc4ccccc4c3=O)o2)cc1` as the molecule, how does the Activity [1] read?
A: Non-toxic

Q: And the Activity [2]?
A: inactive

Q: What about the inhibition in vivo at 100 mg/kg [3] of the same molecule?
A: 50%

Q: And the Time [4]?
A: 184.36 s

Q: What about the Activity [5] of the same molecule?
A: inactive

Q: And the Activity [6]?
A: inactive

Q: What about the Activity [7] of the same molecule?
A: inactive

Q: What about the Activity [8] of the same molecule?
A: inactive

Q: What about the Activity [9] of the same molecule?
A: Non-toxic

Q: For `CCCC(CCC)C(=O)[O-].[Na+]` [VALPROATE SODIUM], which Activity [1] is on record?
A: Non-toxic

Q: What about the Activity [2] of the same molecule?
A: inactive

Q: What about the Activity [5] of the same molecule?
A: inactive

Q: What about the Activity [8] of the same molecule?
A: inactive

Q: And the Activity [9]?
A: Non-toxic

Q: And the minimal effective dose [16]?
A: 300 mg/kg

Q: Which Activity [2] does the source give for `O=c1c2ccccc2nc(/C=C/c2ccc(Cl)cc2)n1-c1nnc(-c2ccc(Cl)cc2)o1` here?
A: inactive

Q: And the inhibition in vivo at 100 mg/kg [3]?
A: 53%

Q: What about the Time [4] of the same molecule?
A: 100.12 s

Q: What about the Activity [5] of the same molecule?
A: inactive

Q: What about the Activity [6] of the same molecule?
A: inactive

Q: And the MTC [13]?
A: 100 mg/kg

Q: And the Activity [7]?
A: inactive

Q: And the Activity [8]?
A: inactive

Q: And the Activity [9]?
A: Non-toxic

Q: Which results are given for `CN(C)c1ccc(-c2nnc(-n3c(/C=C/c4ccccc4)nc4ccccc4c3=O)o2)cc1`?
A: Activity [1]: Non-toxic; Activity [2]: inactive; inhibition in vivo at 100 mg/kg [3]: 30%; Time [4]: 50.23 s; Activity [5]: inactive; Activity [6]: inactive; Activity [7]: inactive; Activity [8]: inactive; Activity [9]: Non-toxic
